Source: patent US7902373B2 (Pfizer Inc, priority 2006, dated 2011)

target: human recombinant H-PGDS (Homo sapiens, UniProt O60760); assay: Fluorescence intensity h-PGDS TBA enzyme assay; format: biochemical; settings: Examples up to 622 (and 3a, 3b)
Sequence (O60760 whole entry): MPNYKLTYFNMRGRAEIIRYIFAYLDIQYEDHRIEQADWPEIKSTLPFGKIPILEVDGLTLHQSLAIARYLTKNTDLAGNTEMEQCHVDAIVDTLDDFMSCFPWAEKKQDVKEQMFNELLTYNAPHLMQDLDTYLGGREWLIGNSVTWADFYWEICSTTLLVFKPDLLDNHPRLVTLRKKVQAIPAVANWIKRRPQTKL

Row | IC50 | SMILES
1 | 2.89 nM | COCc1cc(N2CCC(NC(=O)c3ccc(-c4cccc(F)c4)nc3)CC2)nc(-c2csc(C)n2)n1 [Example 73, 6-(3-Fluorophenyl)-N-{1-[6-(methoxymethyl)-2-(2-methyl-13-thiazol-4-yl)pyrimidin-4-yl]piperidin-4-yl}nicotinamide]
2 | 1.35 nM | CC(=O)c1cc(C#N)c(N2CCC(NC(=O)c3ccc(-c4cccc(F)c4)nc3)CC2)nc1C [Example 76, N-[1-(5-Acetyl-3-cyano-6-methylpyridin-2-yl)piperidin-4-yl]-6-(3-fluorophenyl)nicotinamide]
3 | 0.148 nM | COC(=O)c1cnc(N)nc1N1CCC(NC(=O)c2ccc(-c3cccc(F)c3)nc2)CC1 [Example 78, Methyl 2-amino-4-[4-({[6-(3-fluorophenyl)pyridin-3-yl]carbonyl}amino)piperidin-1-yl]pyrimidine-5-carboxylate]
4 | 0.408 nM | CNC(=O)c1ccc(N2CCC(NC(=O)c3ccc(-c4cccc(F)c4)nc3)CC2)nn1 [Example 80, 6-[4-({[6-(3-Fluorophenyl)pyridin-3-yl]carbonyl}amino)piperidin-1-yl]-N-methylpyridazine-3-carboxamide]
5 | 0.37 nM | CCNC(=O)c1ccc(N2CCC(NC(=O)c3ccc(-c4cccc(F)c4)nc3)CC2)nn1 [Example 83, N-Ethyl-6-[4-({[6-(3-fluorophenyl)pyridin-3-yl]carbonyl}amino)piperidin-1-yl]pyridazine-3-carboxamide]
6 | 0.603 nM | COc1ccc2oc(N3CCC(NC(=O)c4ccc(-c5cccc(F)c5)nc4)CC3)nc2c1 [Example 91, 6-(3-Fluorophenyl)-N-[1-(5-methoxy-13-benzoxazol-2-yl)piperidin-4-yl]nicotinamide]
7 | 5.15 nM | O=C(NC1CCN(c2nnnn2-c2ccc3c(c2)CCC3)CC1)c1ccc(-c2cccc(F)c2)nc1 [Example 92, N-{1-[1-(2,3-Dihydro-1H-inden-5-yl)-1H-tetrazol 5-yl]piperidin-4-yl}-6-(3-fluorophenyl)nicotinamide]
8 | 0.426 nM | O=C(NC1CCN(c2nnnn2-c2ccccc2F)CC1)c1ccc(-c2cccc(F)c2)nc1 [Example 94, 6-(3-Fluorophenyl)-N-{1-[1-(2-fluorophenyl)-1H-tetrazol-5-yl]piperidin-4-yl}nicotinamide]
9 | 0.764 nM | Cc1ccc(-n2nnnc2N2CCC(NC(=O)c3ccc(-c4cccc(F)c4)nc3)CC2)cc1 [Example 95, 6-(3-Fluorophenyl)-N-{1-[1-(4-methylphenyl)-1H-tetrazol-5-yl]piperidin-4-yl}nicotinamide]
10 | 1.19 nM | COc1ccccc1Cn1nnnc1N1CCC(NC(=O)c2ccc(-c3cccc(F)c3)nc2)CC1 [Example 96, 6-(3-Fluorophenyl)-N-{1-[1-(2-methoxybenzyl)-1H-tetrazol-5-yl]piperidin-4-yl}nicotinamide]
11 | 3.7 nM | CCOC(=O)c1cccc(-n2nnnc2N2CCC(NC(=O)c3ccc(-c4cccc(F)c4)nc3)CC2)c1 [Example 98, Ethyl 3-{5-[4-({[6-(3-fluorophenyl)pyridin-3-yl]carbonyl}amino)piperidin-1-yl]-1H-tetrazol-1-yl}benzoate]
12 | 2.15 nM | CCOc1cccc(-n2nnnc2N2CCC(NC(=O)c3ccc(-c4cccc(F)c4)nc3)CC2)c1 [Example 103, N-{1-[1-(3-Ethoxyphenyl)-1H-tetrazol-5-yl]piperidin-4-yl}-6-(3-fluorophenyl)nicotinamide]
13 | 1.29 nM | COc1cccc(Cn2nnnc2N2CCC(NC(=O)c3ccc(-c4cccc(F)c4)nc3)CC2)c1 [Example 108, 6-(3-Fluorophenyl)-N-{1-[1-(3-methoxybenzyl)-1H-tetrazol-5-yl}piperidin-4-yl)nicotinamide]
14 | 2.74 nM | Cn1c(-c2cccc(O)c2)nc2c(N3CCC(NC(=O)c4ccc(-c5cccc(F)c5)nc4)CC3)ncnc21 [Example 109, 6-(3-Fluorophenyl)-N-{1-[8-(3-hydroxyphenyl)-9-methyl-9H-purin-6-yl]piperidin-4-yl}nicotinamide]

The remaining lines, values behind:

Row | SMILES | IC50
15 | O=C(NC1CCN(c2ncccc2C(=O)NC2Cc3ccccc3C2)CC1)c1ccc(-c2cccc(F)c2)nc1 [Example 72, N-(2,3-Dihydro-1H-inden-2-yl)-2-[4-({[6-(3-fluorophenyl)pyridin-3-yl]carbonyl}amino)piperidin-1-yl]nicotinamide] | 4.97 nM
16 | O=C(NC1CCN(c2ncccc2C(=O)c2ccccn2)CC1)c1ccc(-c2cccc(F)c2)nc1 [Example 74, 6-(3-Fluorophenyl)-N-{1-[3-(pyridin-2-ylcarbonyl)pyridin-2-yl]piperidin-4-yl}nicotinamide] | 0.293 nM
17 | O=C(NC1CCN(c2ncccc2C(=O)c2nccs2)CC1)c1ccc(-c2cccc(F)c2)nc1 [Example 75, 6-(3-Fluorophenyl)-N-{1-[3-(1,3-thiazol-2-ylcarbonyl)pyridin-2-yl]piperidin-4-yl}nicotinamide] | 0.314 nM
18 | N#Cc1ccccc1C(=O)c1cccnc1N1CCC(NC(=O)c2ccc(-c3cccc(F)c3)nc2)CC1 [Example 77, N-{1-[3-(2-Cyanobenzoyl)pyridin-2-yl]piperidin-4-yl}-6-(3-fluorophenyl)nicotinamide] | 0.425 nM
19 | O=C(NC1CCN(c2nccnc2Cc2ccccc2)CC1)c1ccc(-c2cccc(F)c2)nc1 [Example 79, N-[1-(3-Benzylpyrazin-2-yl)piperidin-4-yl]-6-(3-fluorophenyl)nicotinamide] | 2.28 nM
20 | CCN1CCCC1CNC(=O)c1ccc(N2CCC(NC(=O)c3ccc(-c4cccc(F)c4)nc3)CC2)nn1 (stereo not drawn) [Example 81, N-[(1-Ethylpyrrolidin-2-yl)methyl]-6-[4-({[6-(3-fluorophenyl)pyridin-3-yl]carbonyl}amino)piperidin-1-yl]pyridazine-3-carboxamide] | 0.947 nM
21 | CCCN(C)C(=O)c1ccc(N2CCC(NC(=O)c3ccc(-c4cccc(F)c4)nc3)CC2)nn1 [Example 82, 6-[4-({[6-(3-Fluorophenyl)pyridin-3-yl]carbonyl}amino)piperidin-1-yl]-N-methyl-N-propylpyridazine-3-carboxamide] | 1.05 nM
22 | O=C(NC1CCN(c2ccc(C(=O)NCCN3CCOCC3)nn2)CC1)c1ccc(-c2cccc(F)c2)nc1 [Example 84, 6-[4-({[6-(3-Fluorophenyl)pyridin-3-yl]carbonyl}amino)piperidin-1-yl]-N-(2-morpholin-4-ylethyl)pyridazine-3-carboxamide] | 0.635 nM
23 | O=C(NC1CCN(c2ccc(C(=O)Nc3ccon3)nn2)CC1)c1ccc(-c2cccc(F)c2)nc1 [Example 85, 6-[4-({[6-(3-Fluorophenyl)pyridin-3-yl]carbonyl}amino)piperidin-1-yl]-N-isoxazol-3-ylpyridazine-3-carboxamide] | 0.72 nM
24 | Cc1noc(NC(=O)c2ccc(N3CCC(NC(=O)c4ccc(-c5cccc(F)c5)nc4)CC3)nn2)c1C [Example 86, N-(3,4-Dimethylisoxazol-5-yl)-6-[4-({[6-(3-fluorophenyl)pyridin-3-yl]carbonyl}amino)piperidin-1-yl]pyridazine-3-carboxamide] | 0.876 nM
25 | CCN1CCN(C(=O)c2ccc(N3CCC(NC(=O)c4ccc(-c5cccc(F)c5)nc4)CC3)nn2)CC1 [Example 87, N-(1-{6-[(4-Ethylpiperazin-1-yl)carbonyl]pyridazin-3-yl}piperidin-4-yl)-6-(3-fluorophenyl)nicotinamide] | 0.538 nM
26 | Cc1nn(C)c(C)c1NC(=O)c1ccc(N2CCC(NC(=O)c3ccc(-c4cccc(F)c4)nc3)CC2)nn1 [Example 89, 6-[4-({[6-(3-Fluorophenyl)pyridin-3-yl]carbonyl}amino)piperidin-1-yl]-N-(1,3,5-trimethyl-1H-pyrazol-4-yl)pyridazine-3-carboxamide] | 0.365 nM
27 | CCC(CO)n1cnc2c(N3CCC(NC(=O)c4ccc(-c5cccc(F)c5)nc4)CC3)ncnc21 (stereo not drawn) [Example 90, 6-(3-Fluorophenyl)-N-(1-{9-[1-(hydroxymethyl)propyl]-9H-purin-6-yl}piperidin-4-yl)nicotinamide] | 0.305 nM
28 | C=CCC(C)(C)c1nc2c(N3CCC(NC(=O)c4ccc(-c5cccc(F)c5)nc4)CC3)ncnc2n1C [Example 93, N-{1-[8-(1,1-Dimethylbut-3-en-1-yl)-9-methyl-9H-purin-6-yl]piperidin-4-yl}-6-(3-fluorophenyl)nicotinamide] | 17.9 nM
29 | CC(C)n1nnnc1N1CCC(NC(=O)c2ccc(-c3cccc(F)c3)nc2)CC1 [Example 97, 6-(3-Fluorophenyl)-N-[1-(1-isopropyl-1H-tetrazol-5-yl)piperidin-4-yl]nicotinamide] | 0.319 nM
30 | O=C(NC1CCN(c2nnnn2CC2CC2)CC1)c1ccc(-c2cccc(F)c2)nc1 [Example 99, N-{1-[1-(Cyclopropylmethyl)-1H-tetrazol-5-yl]piperidin-4-yl}-6-(3-fluorophenyl)nicotinamide] | 2.08 nM
31 | CC(C)OC(=O)Cn1nnnc1N1CCC(NC(=O)c2ccc(-c3cccc(F)c3)nc2)CC1 [Example 100, Isopropyl {5-[4-({[6-(3-fluorophenyl)pyridin-3-yl]carbonyl}amino)piperidin-1-yl]-1H-tetrazol-1-yl}acetate] | 1.53 nM
32 | COCC(C)n1nnnc1N1CCC(NC(=O)c2ccc(-c3cccc(F)c3)nc2)CC1 (stereo not drawn) [Example 101, 6-(3-fluorophenyl)-N-{1-[1-(2-methoxy-1-methylethyl)-1H-tetrazol-5-yl]piperidin-4-yl}nicotinamide] | 1.4 nM
33 | N#Cc1ccc(Cn2nnnc2N2CCC(NC(=O)c3ccc(-c4cccc(F)c4)nc3)CC2)cc1 [Example 102, N-{1-[1-(4-Cyanobenzyl)-1H-tetrazol-5-yl]piperidin-4-yl}-6-(3-fluorophenyl)nicotinamide] | 0.943 nM
34 | C[C@H](c1ccccc1)n1nnnc1N1CCC(NC(=O)c2ccc(-c3cccc(F)c3)nc2)CC1 [Example 104, 6-(3-Fluorophenyl)-N-(1-{1-[(1R)-1-phenylethyl]-1H-tetrazol-5-yl}piperidin-4-yl)nicotinamide] | 3.18 nM
35 | O=C(NC1CCN(c2ncnc3c2ncn3CC(F)(F)F)CC1)c1ccc(-c2cccc(F)c2)nc1 [Example 106] | 0.873 nM
36 | O=C(NC1CCN(c2ncnc3c2ncn3CCN2CCCCC2)CC1)c1ccc(-c2cccc(F)c2)nc1 [Example 107, 6-(3-Fluorophenyl)-N-{1-[9-(2-piperidin-1-ylethyl)-9H-purin-6-yl]piperidin-4-yl}nicotinamide] | 0.804 nM
